Experimental data as given in patent publication US20240277713A1 (Kadmon Corporation, LLC, priority 2022, published 2024).

Key:
[1] = Toxicokinetics in pregnant New Zealand White rabbits (Example 2); format: in vivo, rabbit; details: female, New Zealand White, rabbit, in vivo, po; for AUC(0-t): read-out: maternal AUC0-24; for Cmax: read-out: maternal Cmax
Procedure: The study was conducted in two phases: Phase A was a dose range finding tolerance study with non-pregnant rabbits, and Phase B was the pilot developmental toxicity study.
All fetuses were given the appropriate external examination.

[2] = tested on: human peripheral blood lymphocytes (HPBL); test: in vitro chromosome aberration assay; format: cell-based
[3] = Pharmacokinetics in healthy subjects; format: in vivo, human
[4] = Toxicokinetic evaluation in pregnant rats (Example 3); format: in vivo, rat; details: for Cmax / AUC(0-t): female, Sprague-Dawley, rat, plasma, po; for AUC(0-t): read-out: Mean AUC0-24 in plasma of pregnant rats
Excerpt: Animals received in-life and postmorten evaluations.

[5] = Pharmacokinetics in chronic GVHD patients; format: in vivo, human
[6] = target: CYP2D6 (Homo sapiens, UniProt P10635); test: Enzyme systems in vitro: CYP2D6; format: in vitro ADME
Chain of CYP2D6 (P10635 whole entry): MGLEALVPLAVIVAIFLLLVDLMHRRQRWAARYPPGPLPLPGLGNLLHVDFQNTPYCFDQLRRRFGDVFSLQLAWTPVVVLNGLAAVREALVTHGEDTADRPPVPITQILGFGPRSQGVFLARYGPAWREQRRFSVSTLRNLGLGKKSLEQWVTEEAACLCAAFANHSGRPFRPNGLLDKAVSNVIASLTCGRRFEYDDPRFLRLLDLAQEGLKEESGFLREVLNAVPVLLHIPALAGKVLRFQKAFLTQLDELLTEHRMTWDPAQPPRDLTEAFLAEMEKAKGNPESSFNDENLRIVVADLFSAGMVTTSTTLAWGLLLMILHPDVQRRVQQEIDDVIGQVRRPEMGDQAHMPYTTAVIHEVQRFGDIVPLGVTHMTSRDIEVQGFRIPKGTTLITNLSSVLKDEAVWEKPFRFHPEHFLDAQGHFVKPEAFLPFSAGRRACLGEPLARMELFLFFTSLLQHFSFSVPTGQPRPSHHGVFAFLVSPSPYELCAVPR

[7] = target: human serum albumin (Homo sapiens, UniProt P02768); test: Binding to human serum albumin in vitro; format: in vitro ADME
Chain of human serum albumin (P02768 25-609): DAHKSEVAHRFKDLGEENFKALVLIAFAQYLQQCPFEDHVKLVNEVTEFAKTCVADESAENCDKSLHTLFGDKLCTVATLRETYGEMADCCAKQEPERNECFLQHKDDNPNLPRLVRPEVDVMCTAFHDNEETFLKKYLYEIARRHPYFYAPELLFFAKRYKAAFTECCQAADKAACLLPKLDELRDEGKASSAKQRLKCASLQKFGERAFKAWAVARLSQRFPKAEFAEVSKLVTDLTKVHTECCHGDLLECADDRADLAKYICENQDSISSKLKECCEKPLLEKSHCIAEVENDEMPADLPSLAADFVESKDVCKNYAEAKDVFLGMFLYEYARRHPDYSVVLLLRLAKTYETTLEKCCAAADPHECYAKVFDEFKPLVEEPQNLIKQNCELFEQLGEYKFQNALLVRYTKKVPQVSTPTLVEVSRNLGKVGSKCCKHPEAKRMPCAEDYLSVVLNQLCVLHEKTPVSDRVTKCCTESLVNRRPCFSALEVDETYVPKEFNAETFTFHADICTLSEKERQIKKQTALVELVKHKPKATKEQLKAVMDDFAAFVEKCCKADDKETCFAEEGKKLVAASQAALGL

[8] = single oral dose of radiolabeled belumosudil
[9] = 15 mg/kg/day, GD 6, belumosudil 15 mg base/kg oral
[10] = 15 mg/kg/day, GD 17, belumosudil 15 mg base/kg oral
[11] = 50 mg/kg/day, GD 6, belumosudil 50 mg base/kg oral
[12] = 50 mg/kg/day, GD 17, belumosudil 50 mg base/kg oral
[13] = 150 mg/kg/day, GD 6, belumosudil 150 mg base/kg oral
[14] = 150 mg/kg/day, GD 17, belumosudil 150 mg base/kg oral

CC(C)NC(=O)COc1cccc(-c2nc(Nc3ccc4[nH]ncc4c3)c3ccccc3n2)c1 [belumosudil, 2-{3-[4-(1H-indazol-5-ylamino)-2-quinazolinyl]phenoxy}-N-(propan-2-yl) acetamide]
AUC(0-t) ([1]; 50 mg/kg/day): 2480 ng·h/mL | Cmax ([1]; 50 mg/kg/day): 621 ng/mL | AUC(0-t) ([1]; 250 mg/kg/day): 15600 ng·h/mL | Cmax ([1]; 250 mg/kg/day): 2100 ng/mL | genotoxicity, chromosome aberration assay [2]: not genotoxic | Tmax ([3]; human, in vivo, oral, single dose, read-out: delay of median Tmax with high-fat and high-calorie meal): 30 min | Vd ([3]; human, in vivo, single dose, geo CV % 67.7%, read-out: geometric mean volume of distribution): 184 L | increase in AUC with high-fat and high-calorie meal compared to fasted state ([3]; single dose): 2 times | increase in Cmax with high-fat and high-calorie meal compared to fasted state ([3]; single dose): 2.2 times | mean (% CV) bioavailability ([3]; single dose): 64% (17%) | radioactivity recovered in feces [3, 8]: 85% | radioactivity recovered in urine [3, 8]: less than 5% | recovered in feces as unchanged [3, 8]: 30% | Cmax [4, 9]: 1530 ng/mL | AUC(0-t) [4, 9]: 9750 ng·h/mL | Cmax [4, 10]: 1320 ng/mL | AUC(0-t) [4, 10]: 11900 ng·h/mL | Cmax [4, 11]: 3000 ng/mL | AUC(0-t) [4, 11]: 37700 ng·h/mL | Cmax [4, 12]: 4360 ng/mL | AUC(0-t) [4, 12]: 33300 ng·h/mL | Cmax [4, 13]: 5150 ng/mL | AUC(0-t) [4, 13]: 89400 ng·h/mL | Cmax [4, 14]: 7800 ng/mL | AUC(0-t) [4, 14]: 88300 ng·h/mL | accumulation after multiple dosing of belumosudil ([4]; pregnant rats): No apparent accumulation | mean (% CV) steady-state AUC ([5]; 200 mg once daily): 22700 (48%) h·ng/mL | mean (% CV) steady-state Cmax ([5]; 200 mg once daily): 2390 (44%) ng/mL | pharmacokinetics with regard to age, sex, weight, or mild to moderate renal impairment ([5]; age 18 to 77 years, weight 38.6 to 143 kg): No clinically significant differences | Tmax ([5]; human, in vivo, oral, 200 mg once daily or twice daily, read-out: Median Tmax at steady state): 1.26 to 2.53 h | mean elimination half-life ([5]; patients, % CV 39%): 19 h | clearance ([5]; patients, % CV 46%): 9.83 L/h | CYP2D6 inhibition [6]: inhibitor | binding to human serum albumin [7]: 99.9%
